Results on one molecule are retold here after paper PMC11796312, “Multifunctional, Fluorene‐Based Modulator of Cholinergic and GABAergic Neurotransmission as a Novel Drug Candidate for Palliative Treatment of Alzheimer's Disease” (Angewandte Chemie (International Ed. in English), 2024).

The subject of assay [1] is Human neuroblastoma cells SH-SY5Y. Kind of assay: MTT cell viability assay, SH-SY5Y. Type of assay: cell-based. The following applies: Homo sapiens, 24 h, read-out: IC50 (MTT) ± SEM. The text has this: Human neuroblastoma cells SH-SY5Y and mouse microglial cells SIM-A9 were used to evaluate cell viability, intracellular RONS, and malondialdehyde (MDA; CAS No. 542–78-9).
SH-SY5y cells were cultivated in Dulbecco's modified Eagle's medium (DMEM; Biosera, Nuaille, France) supplemented with 10% fetal bovine serum (Biosera) and 1% penicillin-streptomycin antibiotic solution (Sigma-Aldrich, St. Louis, MO, USA). The culture medium for SIM-A9 cells was further supplemented with donor horse serum (Biosera). The cells were incubated at 37 °C in a CO2 incubator (BINDER CO2 incubator CB 160, Tuttlingen, Germany) and routinely passaged by trypsinization at 75 –85% confluence.
Colorimetric Cell Viability Assay
The toxicological indices IC 50 used in the present study were measured utilizing 3-(4,5-dimethylthiazol-2-yl)-2,5-diphenyl-tetrazolium bromide (MTT) reduction assay after (1 picture or pasted object on this page, not shown here)
24 h incubation with tested compounds. […]
incubation, the cultivation medium containing serially diluted substances was aspirated and replaced with a fresh medium containing MTT at a concentration of 0.5 mg/mL and subsequently incubated at 37 °C for 1 h. […] Cell viability was assessed spectrophotometrically by the amount of formazan produced. Absorbance was measured at 570 nm with 650 nm reference wavelength on Spark (Tecan Group Ltd, Switzerland). […]
In general terms: Formazan colour is commonly taken as a measure of viable cells.

The target in another assay is T1, mGAT3 (Mus musculus, UniProt P31649).
T1 sequence (P31649 1-602): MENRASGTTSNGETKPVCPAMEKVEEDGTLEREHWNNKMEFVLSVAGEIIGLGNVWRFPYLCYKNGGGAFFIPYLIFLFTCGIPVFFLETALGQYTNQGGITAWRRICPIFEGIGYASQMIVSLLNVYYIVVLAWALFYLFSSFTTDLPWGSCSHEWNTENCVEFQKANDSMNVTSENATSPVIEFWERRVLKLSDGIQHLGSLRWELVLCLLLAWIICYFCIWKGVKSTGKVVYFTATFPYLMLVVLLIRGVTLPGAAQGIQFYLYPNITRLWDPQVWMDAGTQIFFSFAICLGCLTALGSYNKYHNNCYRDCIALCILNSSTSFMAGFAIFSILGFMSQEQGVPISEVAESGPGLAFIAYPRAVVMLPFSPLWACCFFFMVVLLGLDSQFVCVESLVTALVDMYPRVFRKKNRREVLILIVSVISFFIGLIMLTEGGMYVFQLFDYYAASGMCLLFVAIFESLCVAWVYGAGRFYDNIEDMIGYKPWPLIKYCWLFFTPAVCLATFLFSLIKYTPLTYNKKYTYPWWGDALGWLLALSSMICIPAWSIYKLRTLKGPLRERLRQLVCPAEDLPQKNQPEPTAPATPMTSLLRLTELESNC
Kind of assay: [3H]GABA uptake assay, mGAT3. Type of assay: cell-based.

On to `O[C@H](CNCC1CC1)[C@H](Cc1ccccc1)NC1c2ccccc2-c2ccccc21` [Compound 6], for which the half-maximal inhibitory concentration (IC50) was found to be 3.38 ± 0.04 µM in assay [1] and 7.41 ± 0.69 µM at mGAT3.

By IC50 is commonly meant the point on the concentration scale where inhibition reaches its midpoint.
